For the experiment, the target named is T1, Glycogen phosphorylase, liver form (Homo sapiens, UniProt P06737).
T1 sequence (P06737 whole entry): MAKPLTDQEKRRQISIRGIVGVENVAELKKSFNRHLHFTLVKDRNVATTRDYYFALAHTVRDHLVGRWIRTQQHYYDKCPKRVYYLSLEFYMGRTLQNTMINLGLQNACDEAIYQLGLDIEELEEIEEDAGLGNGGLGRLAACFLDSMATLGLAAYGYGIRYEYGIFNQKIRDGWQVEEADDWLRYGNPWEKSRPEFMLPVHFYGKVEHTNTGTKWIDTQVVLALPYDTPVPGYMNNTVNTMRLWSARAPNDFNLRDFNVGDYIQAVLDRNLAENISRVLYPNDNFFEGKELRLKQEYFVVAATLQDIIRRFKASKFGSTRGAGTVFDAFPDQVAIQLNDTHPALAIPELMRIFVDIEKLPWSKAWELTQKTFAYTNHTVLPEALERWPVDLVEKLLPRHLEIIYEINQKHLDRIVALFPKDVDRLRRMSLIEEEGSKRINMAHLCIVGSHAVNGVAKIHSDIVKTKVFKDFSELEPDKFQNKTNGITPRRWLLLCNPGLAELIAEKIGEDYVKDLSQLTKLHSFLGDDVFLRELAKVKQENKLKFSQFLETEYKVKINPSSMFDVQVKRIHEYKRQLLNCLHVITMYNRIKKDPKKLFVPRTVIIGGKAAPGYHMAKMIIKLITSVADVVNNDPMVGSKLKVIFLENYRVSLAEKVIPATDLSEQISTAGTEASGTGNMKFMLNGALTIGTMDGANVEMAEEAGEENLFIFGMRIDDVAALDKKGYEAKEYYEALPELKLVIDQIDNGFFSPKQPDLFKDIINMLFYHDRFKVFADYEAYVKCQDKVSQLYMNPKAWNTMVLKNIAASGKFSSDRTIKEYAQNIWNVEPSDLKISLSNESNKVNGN
The experiment can be described thus: Inhibition Activity Assay. Particulars: pH 7.2; 22 °C. As for the experimental part: Human liver glycogen phsphorylase (HLGP) activity was measured in the direction of glycogen synthesis by the release of phosphate from glucose-1-phosphate.

From BindingDB's records for doi:10.1016/S1074-5521(00)00004-1 (Pfizer, 2000) come the findings set out here.

pIC50: −log10 of the molar value.

In general, pIC50 refers to the negative decadic logarithm of the IC50, by convention in mol/L. Low values mean a high IC50, high ones a low IC50. `Cc1ccc2[nH]c(C(=O)NCCOCCOCCNC(=O)c3cc4cc(Cl)ccc4[nH]3)cc2c1` [CP-526,423] showed a pIC50 of 8.22.

`COCCNC(=O)c1cc2cc(Cl)ccc2[nH]1` gave a pIC50 of 4.90.
